Results on 2 molecules are retold here after ChEMBL document CHEMBL1795250, “Synthesis and base-pairing properties of C-nucleotides having 1-substituted 1H-1,2,3-triazoles” (Bioorg Med Chem Lett, 2009).

Holding throughout (format): nucleic-acid assay
Experiment [1] has as its system Nucleic Acid. Description: Stabilization of 5'-AGAGAGATAGAAAAA-3' ssDNA sequence assessed as melting temperature at pH7 using 100 mM NaCl.
Experiment [2] has as its system Nucleic Acid. Briefly: Stabilization of 5'-AGAGAGACAGAAAAA-3' ssDNA sequence assessed as melting temperature at pH7 using 100 mM NaCl.
For experiment [3], the system named is Nucleic Acid. Description: Stabilization of 5'-AGAGAGAGAGAAAAA-3' ssDNA sequence assessed as melting temperature at pH7 using 100 mM NaCl.
Experiment [4] concerns Nucleic Acid. Description: Stabilization of 5'-AGAGAGAAAGAAAAA-3' ssDNA sequence assessed as melting temperature at pH7 using 100 mM NaCl.

Regarding `Cc1ccc(-n2cc([C@H]3C[C@H](OP(=O)(O)OC[C@H]4O[C@@H](n5cc(C)c(=O)[nH]c5=O)C[C@@H]4OP(=O)(O)OC[C@H]4O[C@@H](n5cc(C)c(N)nc5=O)C[C@@H]4OP(=O)(O)OC[C@H]4O[C@@H](n5cc(C)c(=O)[nH]c5=O)C[C@@H]4OP(=O)(O)OC[C@H]4O[C@@H](n5cc(C)c(N)nc5=O)C[C@@H]4OP(=O)(O)OC[C@H]4O[C@@H](n5cc(C)c(=O)[nH]c5=O)C[C@@H]4OP(=O)(O)OC[C@H]4O[C@@H](n5cc(C)c(N)nc5=O)C[C@@H]4OP(=O)(O)OC[C@H]4O[C@@H](n5cc(C)c(=O)[nH]c5=O)C[C@@H]4O)[C@@H](COP(=O)(O)O[C@H]4C[C@H](n5cc(C)c(=O)[nH]c5=O)O[C@@H]4COP(=O)(O)O[C@H]4C[C@H](n5cc(C)c(N)nc5=O)O[C@@H]4COP(=O)(O)O[C@H]4C[C@H](n5cc(C)c(=O)[nH]c5=O)O[C@@H]4COP(=O)(O)O[C@H]4C[C@H](n5cc(C)c(=O)[nH]c5=O)O[C@@H]4COP(=O)(O)O[C@H]4C[C@H](n5cc(C)c(=O)[nH]c5=O)O[C@@H]4COP(=O)(O)O[C@H]4C[C@H](n5cc(C)c(=O)[nH]c5=O)O[C@@H]4COP(=O)(O)O[C@H]4C[C@H](n5cc(C)c(=O)[nH]c5=O)O[C@@H]4CO)O3)nn2)cc1`, the Tm in experiment [1] was 38 °C; in experiment [2], 36 °C; in experiment [3], 42 °C; in experiment [4], 39 °C.
The matching figures for `Cc1cn([C@H]2C[C@H](OP(=O)(O)OC[C@H]3O[C@@H](n4cc(C)c(=O)[nH]c4=O)C[C@@H]3OP(=O)(O)OC[C@H]3O[C@@H](n4cc(C)c(N)nc4=O)C[C@@H]3OP(=O)(O)OC[C@H]3O[C@@H](n4cc(C)c(=O)[nH]c4=O)C[C@@H]3OP(=O)(O)OC[C@H]3O[C@@H](n4cc(C)c(N)nc4=O)C[C@@H]3OP(=O)(O)OC[C@H]3O[C@@H](n4cc(C)c(=O)[nH]c4=O)C[C@@H]3O)[C@@H](COP(=O)(O)O[C@H]3C[C@H](n4cc(C)c(=O)[nH]c4=O)O[C@@H]3COP(=O)(O)O[C@H]3C[C@H](c4cn(CSc5ccccc5)nn4)O[C@@H]3COP(=O)(O)O[C@H]3C[C@H](n4cc(C)c(=O)[nH]c4=O)O[C@@H]3COP(=O)(O)O[C@H]3C[C@H](n4cc(C)c(N)nc4=O)O[C@@H]3COP(=O)(O)O[C@H]3C[C@H](n4cc(C)c(=O)[nH]c4=O)O[C@@H]3COP(=O)(O)O[C@H]3C[C@H](n4cc(C)c(=O)[nH]c4=O)O[C@@H]3COP(=O)(O)O[C@H]3C[C@H](n4cc(C)c(=O)[nH]c4=O)O[C@@H]3COP(=O)(O)O[C@H]3C[C@H](n4cc(C)c(=O)[nH]c4=O)O[C@@H]3COP(=O)(O)O[C@H]3C[C@H](n4cc(C)c(=O)[nH]c4=O)O[C@@H]3CO)O2)c(=O)nc1N`: 40 °C, 38 °C, 40 °C and 37 °C.
